Laboratory results as given in patent publication US20070049593A1 (priority 2004, published 2007).
Structures can show the parent of a compound that is named as a salt.

The compounds below were run against T1, HCV polymerase (Hepatitis C virus genotype 1b, UniProt P26663) (assay: biochemical).
T1 construct: a region encoding NS5B (J Virol 1991 March, 65(3), 1105-13, 544 amino acids after deletion of 47 amino acids on the C-terminal); 6xHis (C); made in house; host or cells: Escherichia coli
T1 sequence (P26663 2420-2963): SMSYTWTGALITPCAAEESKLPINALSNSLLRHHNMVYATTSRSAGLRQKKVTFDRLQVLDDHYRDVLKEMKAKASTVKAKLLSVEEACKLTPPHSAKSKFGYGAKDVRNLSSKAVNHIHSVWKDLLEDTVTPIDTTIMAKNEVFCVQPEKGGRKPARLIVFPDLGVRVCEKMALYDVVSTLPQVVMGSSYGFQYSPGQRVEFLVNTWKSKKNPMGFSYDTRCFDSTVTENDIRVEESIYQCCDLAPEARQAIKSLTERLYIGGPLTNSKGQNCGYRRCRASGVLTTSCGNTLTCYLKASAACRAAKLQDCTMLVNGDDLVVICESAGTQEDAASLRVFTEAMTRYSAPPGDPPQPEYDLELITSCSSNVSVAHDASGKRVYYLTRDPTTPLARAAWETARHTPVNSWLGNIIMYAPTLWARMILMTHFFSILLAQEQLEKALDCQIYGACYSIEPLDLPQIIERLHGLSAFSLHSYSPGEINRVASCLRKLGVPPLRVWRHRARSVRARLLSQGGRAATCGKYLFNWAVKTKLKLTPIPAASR
Set-up: species or system HCV BK strain
Method in brief: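 His-tagged NS5B (BK strain, 47-aa C-terminal deletion, E. coli-expressed) at 0.5 μg/ml copied 5 μg/ml run-off RNA bearing the HCV 3′ UTR with 2 μM UTP plus [3H]UTP, 50 μM ATP/GTP, in pH 7.5 Tris with 5 mM MgCl2, 25 °C, 90 min. TCA-precipitated RNA was counted and IC50 calculated.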
`COc1ccc2c(c1)OCCn1c-2c(C2CCCCC2)c2ccc(C(=O)NC3(C(=O)Nc4ccc(C(=O)O)cc4)CCN(C)CC3)cc21` [Example 2-397, 4-([4-[(12-cyclohexyl-3-methoxy-6,7-dihydro-5-oxa-7a-azadibenzo[a,e]azulene-9-carbonyl)amino]-1-methylpiperidine-4-carbonyl)amino)benzoic acid] was tested, and the IC50 was less than 100 nM. Compound `CCC(=O)N1CCN(CCN2CCn3c(c(C4CCCCC4)c4ccc(C(=O)O)cc43)-c3ccccc32)CC1` [Example 1-225, 13-cyclohexyl-5-[2-(4-propionylpiperazin-1-yl)ethyl]-6,7-dihydro-5H-benzo[5,6][1,4]diazepino[7,1-a]indole-10-carboxylic acid dihydrochloride] has an IC50 of less than 100 nM. With `Cc1ccc2c(c1)N(C)CCn1c-2c(C2CCCCC2)c2ccc(C(=O)NC3(C(=O)Nc4ccc(/C=C/C(=O)O)cc4)CCC3)nc21` [Example 8-9, (E)-3-[4-({1-[(12-cyclohexyl-3,5-dimethyl-6,7-dihydro-5H-5,7a,8-triazadibenzo[a,e]azulene-9-carbonyl)amino]cyclobutanecarbonyl}amino)phenyl]acrylic acid] the IC50 was less than 100 nM. `CCN(CCCCOC)CCN1CCn2c(c(C3CCCCC3)c3ccc(C(=O)O)cc32)-c2ccc(C)cc21` [Example 1-539, 13-cyclohexyl-5-{2-[N-ethyl-N-(4-methoxybutyl)amino]ethyl}-3-methyl-6,7-dihydro-5H-benzo[5,6][1,4]diazepino[7,1-a]indole-10-carboxylic acid dihydrochloride] was tested, and the IC50 was less than 100 nM. `Cc1ccc2c(c1)N(CCN1CCC[C@@H](CCO)C1)CCn1c-2c(C2CCCCC2)c2ccc(C(=O)O)cc21` [Example 1-494, 13-cyclohexyl-5-{2-[(S)-3-(2-hydroxyethyl)piperidin-1-yl)ethyl}-3-methyl-6,7-dihydro-5H-benzo[5,6][1,4]diazepino[7,1-a]indole-10-carboxylic acid dihydrochloride] showed an IC50 of less than 100 nM. Compound `CCC1CCCN(CCN2CCn3c(c(C4CCCCC4)c4ccc(C(=O)O)cc43)-c3ccc(Cl)cc32)C1` (centres unmarked) [Example 1-249, 3-chloro-13-cyclohexyl-5-[2-(3-ethylpiperidin-1-yl)ethyl]-6,7-dihydro-5H-benzo[5,6][1,4]diazepino[7,1-a]indole-10-carboxylic acid dihydrochloride] has an IC50 of less than 100 nM. `O=C(O)CNC(=O)C1(NC(=O)c2ccc3c(C4CCCCC4)c4n(c3c2)CCOc2ccccc2-4)CCC1` [Example 2-55, ({1-[(12-cyclohexyl-6,7-dihydro-5-oxa-7a-azadibenzo[a,e]azulene-9-carbonyl)amino]cyclobutanecarbonyl}amino)acetic acid] showed an IC50 of less than 100 nM. For `COc1ccc2c(c1)OCCn1c-2c(C2CCCCC2)c2ccc(C(=O)NC3(C(=O)Nc4cccc(/C=C/C(=O)O)c4)CCC3)cc21` [Example 2-550, (E)-3-[3-({1-[(12-cyclohexyl-3-methoxy-6,7-dihydro-5-oxa-7a-azadibenzo[a,e]azulene-9-carbonyl)amino]cyclobutanecarbonyl}amino)phenyl]acrylic acid], the IC50 was less than 100 nM. Work on `O=C(O)c1ccc2c(C3CCCCC3)c3n(c2c1)CCOc1cc(Oc2ccccc2)ccc1-3` [Example 2-20, 12-cyclohexyl-3-phenoxy-6,7-dihydro-5-oxa-7a-azadibenzo[a,e]azulene-9-carboxylic acid] yielded an IC50 of less than 100 nM. In the case of `CCOc1ccc2c(c1)N(CCC1CCCN(C(C)C)C1)CCn1c-2c(C2CCCCC2)c2ccc(C(=O)O)cc21` (centres unmarked) [Example 1-349, 13-cyclohexyl-3-ethoxy-5-[2-(1-isopropylpiperidin-3-yl)ethyl]-6,7-dihydro-5H-benzo[5,6][1,4]diazepino[7,1-a]indole-10-carboxylic acid dihydrochloride], the IC50 is reported as less than 100 nM. `O=C(O)c1ccc2c(C3CCCC3)c3n(c2c1)CCN(CCN1CCCCC1)c1ccccc1-3` [Example 1-399, 13-cyclopentyl-5-[2-(piperidin-1-yl)ethyl]-6,7-dihydro-5H-benzo[5,6][1,4]diazepino[7,1-a]indole-10-carboxylic acid monohydrochloride] showed an IC50 of less than 100 nM. `COC[C@H]1CCCN(CCN2CCn3c(c(C4CCCCC4)c4ccc(C(=O)O)cc43)-c3ccc(C)cc32)C1` [Example 1-417, 13-cyclohexyl-5-[2-((S)-3-methoxymethylpiperidin-1-yl)ethyl]-3-methyl-6,7-dihydro-5H-benzo[5,6][1,4]diazepino[7,1-a]indole-10-carboxylic acid dihydrochloride] gave an IC50 of less than 100 nM. Compound `CCOc1ccc2c(c1)N(CCN1CCCCC1)CCn1c-2c(C2CCCCC2)c2ccc(C(=O)O)cc21` [Example 1-276, 13-cyclohexyl-3-ethoxy-5-[2-(piperidin-1-yl)ethyl]-6,7-dihydro-5H-benzo[5,6][1,4]diazepino[7,1-a]indole-10-carboxylic acid dihydrochloride] has an IC50 of less than 100 nM. `COCCN1CCCC(CCN2CCn3c(c(C4CCCCC4)c4ccc(C(=O)O)cc43)-c3ccc(Cl)cc32)C1` (centres unmarked) [Example 1-534, 3-chloro-13-cyclohexyl-5-{2-[1-(2-methoxyethyl)piperidin-3-yl]ethyl}-6,7-dihydro-5H-benzo[5,6][1,4]diazepino[7,1-a]indole-10-carboxylic acid dihydrochloride] gave an IC50 of less than 100 nM. For `COc1ccc2c(c1)OCCn1c-2c(C2CCCCC2)c2ccc(C(=O)N[C@@H](Cc3c[nH]cn3)C(=O)O)cc21` [Example 2-310, (S)-2-[(12-cyclohexyl-3-methoxy-6,7-dihydro-5-oxa-7a-azadibenzo[a,e]azulene-9-carbonyl)amino]-3-(1H-imidazol-4-yl)propionic acid], the IC50 was less than 100 nM. With `COC(=O)[C@H](Cc1ccc(NC(C)=O)cc1)NC(=O)c1ccc2c(C3CCCCC3)c3n(c2c1)CCOc1cc(OC)ccc1-3` [Example 2-338, methyl (S)-3-(4-acetylaminophenyl)-2-[(12-cyclohexyl-3-methoxy-6,7-dihydro-5-oxa-7a-azadibenzo[a,e]azulene-9-carbonyl)amino]propionate] the IC50 was less than 100 nM. `CN(C)CCN1CCn2c(c(C3CCCCC3)c3ccc(C(=O)O)cc32)-c2ccc(OCc3cccc(N(C)C)c3)cc21` [Example 1-591, 13-cyclohexyl-3-(3-dimethylaminobenzyloxy)-5-(2-dimethylaminoethyl)-6,7-dihydro-5H-benzo[5,6][1,4]diazepino[7,1-a]indole-10-carboxylic acid trihydrochloride] showed an IC50 of less than 100 nM. `CCN1CCCC(CCN2CCn3c(c(C4CCCCC4)c4ccc(C(=O)O)cc43)-c3ccc(C)cc32)C1` (centres unmarked) [Example 1-273, 13-cyclohexyl-5-[2-(1-ethylpiperidin-3-yl)ethyl]-3-methyl-6,7-dihydro-5H-benzo[5,6][1,4]diazepino[7,1-a]indole-10-carboxylic acid dihydrochloride] was tested, and the IC50 was less than 100 nM. `CN1CCn2c(c(C3CCCCC3)c3ccc(C(=O)O)cc32)-c2ccccc21` [Example 1-20, 13-cyclohexyl-5-methyl-6,7-dihydro-5H-benzo[5,6][1,4]diazepino[7,1-a]indole-10-carboxylic acid] showed an IC50 of less than 100 nM. With `CC(C)C1CCCN(CCN2CCn3c(c(C4CCCCC4)c4ccc(C(=O)O)cc43)-c3ccc(Cl)cc32)C1` (centres unmarked) [Example 1-351, 3-chloro-13-cyclohexyl-5-[2-(3-isopropylpiperidin-1-yl)ethyl]-6,7-dihydro-5H-benzo[5,6][1,4]diazepino[7,1-a]indole-10-carboxylic acid dihydrochloride] the IC50 was less than 100 nM.
